Measured values reported in patent US20070041904A1, “Peptides whose uptake by cells is controllable” (priority 2003, published 2007).

Test system: MDA-MB-231 cells
Experiment: ACPP uptake in 3D Matrigel culture, MDA-MB-231
Format: cell-based
Conditions: Homo sapiens, 0.1 mM GM6001, read-out: inhibition of uptake of PLGLAG-containing ACPP
Method: FIG. 56: MDA-MB-231 cells in 3-D culture make enough MMPs to take up ACPP over 24 hr. The left two columns show results with e9-XPLGLAG-r9-k(Cy5) without or with 0.1 mM GM6001, a general inhibitor of MMPs. GM6001 also reduces invasiveness of the cells, explaining why the cell cluster is smaller. The right two columns show e9-Xplglag-r9-k(Cy5) as a nonhydrolyzable negative control and r9-k(Cy5) as a positive control. […] Note that these ACPPs have no macromolecular carrier, because there is no need to hinder kidney excretion and because the macromolecular carriers seem to hinder diffusion through the Matrigel and into these organoids, which lack active circulation.
3D tissue cultures in matrigel (FIG. 53) may also be used in the practice of this invention. Such 3D cultures are more realistic models than isolated tumor cells, and offer higher-resolution analysis than is possible in live animals. […]
For these studies, tricine gels, fluorescence imaging, and flow cytometry protocols were used to quantify cleavage and uptake of ACPPs into the 3D cultures. Fluorescence imaging allowed detection of total fluorescence of surface and intracellular peptide, whereas flow cytometry measured fluorescence remaining inside cells after clusters have been digested into single cells and stripped of surface binding via trypsinization. […]

## CNC(=O)[C@H](Cc1c[nH]c2ccccc12)NC(=O)[C@@H](CC(=O)NO)CC(C)C [GM6001]
  inhibition at 100 µM: ~50%
